Laboratory results as given in US6448269B1 (Eli Lilly and Company, priority 1993, dated 2002).
Counter-ions that a name gives are not always drawn.

Assays:
GPIIb-IIIa = biological target: T1, GPIIb-IIIa (Homo sapiens, UniProt P05106+P08514); experiment: ELISA IIb-IIIa assay (fibrinogen binding to immobilized GPIIb-IIIa); conditions: purified platelet GPIIb-IIIa receptor coated on ELISA plates; biotin-labeled fibrinogen 10 nM, 3 hours at 25° C.
T1 construct: Purified platelet GPIIb-IIIa receptor was prepared as described by Fitzgerald; from tissue; host or cells: platelets
T1 sequence (P08514 32-887 limits assumed): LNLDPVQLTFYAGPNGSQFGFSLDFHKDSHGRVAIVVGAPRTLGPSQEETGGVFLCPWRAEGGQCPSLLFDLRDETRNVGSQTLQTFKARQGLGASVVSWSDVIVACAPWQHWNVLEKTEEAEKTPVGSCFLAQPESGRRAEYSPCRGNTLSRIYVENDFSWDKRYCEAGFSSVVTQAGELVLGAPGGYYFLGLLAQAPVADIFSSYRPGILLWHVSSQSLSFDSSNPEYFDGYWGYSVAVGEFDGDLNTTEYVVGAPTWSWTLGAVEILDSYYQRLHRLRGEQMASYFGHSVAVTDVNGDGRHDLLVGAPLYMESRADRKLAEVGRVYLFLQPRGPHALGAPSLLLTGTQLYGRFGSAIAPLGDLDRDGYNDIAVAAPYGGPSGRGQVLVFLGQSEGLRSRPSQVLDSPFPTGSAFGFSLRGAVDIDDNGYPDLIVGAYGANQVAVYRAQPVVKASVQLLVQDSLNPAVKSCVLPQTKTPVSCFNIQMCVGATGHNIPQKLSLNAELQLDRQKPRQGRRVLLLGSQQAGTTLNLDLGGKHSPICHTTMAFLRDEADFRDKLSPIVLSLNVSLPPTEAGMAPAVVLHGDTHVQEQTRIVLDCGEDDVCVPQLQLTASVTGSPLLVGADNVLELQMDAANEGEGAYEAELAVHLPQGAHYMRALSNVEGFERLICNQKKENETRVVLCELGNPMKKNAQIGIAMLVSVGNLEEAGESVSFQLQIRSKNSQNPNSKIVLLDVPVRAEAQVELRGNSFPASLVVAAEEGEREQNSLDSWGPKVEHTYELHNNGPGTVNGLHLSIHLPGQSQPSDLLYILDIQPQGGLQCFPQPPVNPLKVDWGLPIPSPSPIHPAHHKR
T1 sequence (P05106 27-788): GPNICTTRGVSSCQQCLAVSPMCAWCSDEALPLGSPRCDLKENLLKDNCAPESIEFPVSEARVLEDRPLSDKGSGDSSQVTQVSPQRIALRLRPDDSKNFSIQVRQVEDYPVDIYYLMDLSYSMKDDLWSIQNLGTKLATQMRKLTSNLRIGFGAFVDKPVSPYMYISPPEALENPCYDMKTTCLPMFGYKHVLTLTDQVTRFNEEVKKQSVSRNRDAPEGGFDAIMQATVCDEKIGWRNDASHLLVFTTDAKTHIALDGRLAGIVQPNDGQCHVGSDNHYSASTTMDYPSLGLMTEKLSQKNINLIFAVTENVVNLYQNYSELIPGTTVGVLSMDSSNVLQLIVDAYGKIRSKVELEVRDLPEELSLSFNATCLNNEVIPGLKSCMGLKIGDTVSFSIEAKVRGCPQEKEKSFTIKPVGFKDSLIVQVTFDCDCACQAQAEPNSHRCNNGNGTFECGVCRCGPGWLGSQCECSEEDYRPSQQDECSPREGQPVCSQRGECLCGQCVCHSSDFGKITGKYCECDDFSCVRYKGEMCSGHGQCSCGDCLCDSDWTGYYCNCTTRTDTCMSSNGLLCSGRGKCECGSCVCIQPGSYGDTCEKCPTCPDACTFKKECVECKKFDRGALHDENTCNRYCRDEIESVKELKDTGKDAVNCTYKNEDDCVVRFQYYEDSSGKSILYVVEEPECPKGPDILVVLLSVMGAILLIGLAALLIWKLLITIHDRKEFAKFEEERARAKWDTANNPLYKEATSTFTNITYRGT
Protocol: In the following assay, GPIIb-IIIa is prepared in purified form, by a method such as described by Fitzgerald, L. A., et al., Anal Biochem (1985) 151:169-177, (the disclosure of which is incorporated herein by reference). GPIIb-IIIa is coated onto microtiter plates. The coated support is then contacted with fibrinogen and with the test material (e.g., compounds of Formula I) and incubated for a sufficient time to permit maximal binding of fibrinogen to the immobilized GPIIb-IIIa. Fibrinogen is typically provided at a concentration of about 5-50 nM and the test material can, if desired, be added at a series of dilution. Typical incubations are 2 to 4 hours at 25° C., the time and temperature being interdependent.
After incubation, the solution containing the fibrinogen and test material is removed and the level of binding of fibrinogen measured by quantitating bound fibrinogen to GPIIb-IIIa. Any suitable means of detection may be used, but it is convenient to employ labeled fibrinogen, for example using biotinylated labels. Such methods are well known in the art.
Purified platelet GPIIb-IIIa receptor was prepared as described by Fitzgerald, L. A., et al., Anal Biochem (1985) 151:169-177 (1985). Vitronectin receptor was prepared as described by Smith, J. W., J. Biol Chem (1988) 263:18726-18731. After purification, the receptors were stored in 0.1% Triton X-100 at 0.1-1.0 mg/ml.
The receptors were coated to the wells of 96-well flat-bottom ELISA plates (Linbro EIA-Plus microtiter plate, Flow Laboratories) after diluting 1:200 with a solution of 20 mM Tris-HCl, 150 mM NaCl, 1 mM CaCl2, pH 7.4, to reduce the Triton X-100 concentration to below its critical micellar concentration and adding an aliquot of 100 ul to each well. The wells were all allowed to incubate overnight at 4° C., and then aspirated to dryness. Additional sites were blocked by the addition of bovine serum albumin (BSA) at 35 mg/ml in the above buffer for 2 hours at 30° C. to prevent nonspecific binding. The wells were then washed once with binding buffer ([…] Tris-HCl, 100 mM NaCl 2 mM CaCl2, 1 mg/ml BSA).
The corresponding ligands (fibrinogen, von Willebrand Factor, or vitronectin) were conjugated to biotin using commercially available reagents and standard protocols. The labeled ligands were added to the receptor-coated wells at final concentration of 10 nM (100 ul/well) and incubated for 3 hours at 25° C. in the presence or absence of the test samples. After incubation, the wells are aspirated to dryness and bound ligand is quantitated.
The bound protein is detected by the addition of antibiotin antibody conjugated to alkaline phosphatase followed by addition of substrate (p-nitrophenyl phosphate), and determination of the optical density of each well at […]. Decreased color development is observed in wells incubated with test samples which inhibit binding of ligand to receptor.

[1] = tested on: human platelet-rich plasma; experiment: Platelet aggregation assay (Aggregation-Human PRP/ADP); type: cell-based; conditions: 1 min; human platelet-rich plasma incubated with compound 1 minute at 37° C.; ADP-induced aggregation; read-out: Agg: Human PRP/ADP IC50uM
Protocol: Platelet-rich plasma was prepared from healthy human volunteers for use in determining inhibition of platelet aggregation by the compounds.
Platelet-rich plasma was prepared at room temperature by centrifugation of the citrated whole blood at 100×g for 12 minutes. The platelet rich plasma contained approximately 200-400,000 platelets/μl.
Platelet-poor plasma was prepared by centrifugation of citrated whole blood at 12,000×g for 2 minutes.
Platelet aggregation was assayed in a 4-channel platelet aggregation profiler (PAP-4, Biodata, Hatboro, Pa.) according to the manufacturers directions. Inhibition of platelet aggregation was studied by adding varying amounts of […] to stirred human platelet-rich plasma. Specifically, the human platelet-rich plasma was incubated with the compound being tested for 1 minute at 37° C. prior to the addition of a variety of aggregating agents most often ADP 5 μM, but also 1 μg/ml collagen, 1 μM U46619 and 0.3 μM platelet activating factor.

Compound | IC50 (GPIIb-IIIa) | IC50 [1]
CCCCNC(=N)c1ccc(C(=O)Nc2ccc3c(c2)CCC(CC(=O)O)O3)cc1 (racemic) [Example 84, rac-(6-(N-(4-((Butylamino)iminomethyl)benzoyl)amino)-3,4-dihydro-2H-1-benzopyran-2-yl)acetic Acid] | 5.5 nM | 0.084 µM
CCOC(=O)CC1CCc2cc(NC(=O)c3ccc(C(=N)NC(=O)OCC)cc3)ccc2O1 (racemic) [Example 68] | > 1000 nM | –
O=C(O)CC1CCc2cc(OCCC3CCNCC3)ccc2O1 (racemic) [Example 61, rac-(3,4-Dihydro-6-(2-(piperidin-4-yl)ethoxy)-2H-1-benzopyran-2-yl)acetic Acid Trifluoroacetate] | > 1000 nM | 100 µM
CNC(=N)c1ccc(C(=O)Nc2ccc3c(c2)CCC(CC(=O)O)O3)cc1 (racemic) [Example 58, rac-(3,4-Dihydro-6-(N-(4-((methylamino)iminomethyl)benzoyl)amino)-2H-1-benzopyran-2-yl)acetic Acid] | 33.4 nM | 0.28 µM
CCCC(CC(=O)O)N1CCc2cc(OCc3ccc(C(=N)N)cc3)ccc2C1=O (racemic) [Example 15, (+−)-6-[[4-(Aminoiminomethyl)phenyl]methoxy]-3,4-dihydro-1-oxo-b-propyl-2 (1H)-isoquinoline Propanoic Acid Trifluoroacetate] | 500 nM | 0.23 µM
CCCNC(=N)c1ccc(C(=O)Nc2ccc3c(c2)CCC(CC(=O)O)O3)cc1 (racemic) [Example 82, rac-(3,4-Dihydro-6-(N-(4-((propylamino)iminomethyl)benzoyl)amino)-2H-1-benzopyran-2-yl)acetic Acid] | 19 nM | 0.12 µM
N=C(N)c1ccc(C(=O)Nc2ccc3c(c2)CCC(CC(=O)O)=C3)cc1 [Example 31] | 16 nM | 15 µM
N=C(N)c1ccc(C(=O)Nc2ccc3c(c2)CCC(CC(=O)O)O3)c(F)c1 (racemic) [Example 70, rac-(6-(N-(4-(Aminoiminomethyl)-2-fluorobenzoyl)amino)-3,4-dihydro-2H-1-benzopyran-2-yl)acetic Acid] | 1.3 nM | 0.082 µM
N=C(N)c1ccc(NC(=O)c2ccc3c(c2)CCC(CC(=O)O)C3)cc1 (stereo not shown) [Example 40] | 53 nM | 1.6 µM
CCOC(=O)CCC1(C)CCc2cc(NC(=O)c3ccc(C(=N)N)cc3)ccc2O1 (racemic) [Example 50, Ethyl rac-3-(6-(N-(4-(Aminoiminomethyl)benzoyl)amino)-3,4-dihydro-2-methyl-2H-1-benzopyran-2-yl)propanoate Hydrochloride] | 3930 nM | 100 µM
N=C(N)c1ccc(COc2ccc3c(c2)CCN(C(CC(=O)O)C(=O)NCCC(=O)O)C3=O)cc1 (racemic) [Example 9, (+−)-6-[[4-(Aminoiminomethyl)phenyl]methoxy]-beta-[[(2-carboxyethyl)amino]carbonyl-3,4-dihydro-1-oxo-2(1H)-isoquinoline Propanoic Acid Trifluoroacetate] | 85 nM | 0.85 µM
N=C(N)c1ccc(COc2ccc3c(c2)CCN(C(CC(=O)O)C(=O)NCc2ccccc2)C3=O)cc1 (racemic) [Example 6, (+−)-6-[[4-(Aminoiminomethyl)phenyl]methoxy]-3,4-dihydro-1-oxo-beta-[[(phenylmethyl)amino]carbonyl]-2(1H)-isoquinoline Propanoic Acid Trifluoroacetate] | 50 nM | 0.7 µM
N=C(N)c1ccc(COc2ccc3c(c2)CCC(CC(=O)O)O3)cc1 (racemic) [Example 46, rac-(6-(4-(Aminoiminomethyl)phenylmethoxy)-3,4-dihydro-2H-1-benzopyran-2-yl)acetic Acid Trifluoroacetate] | 3.3 nM | 2.5 µM
N=C(N)c1ccc(C(=O)Nc2ccc3c(c2)CCC(CCC(=O)O)C3)cc1 (stereo not shown) [Example 38] | 240 nM | 2.8 µM
N=C(N)c1ccc(C(=O)Nc2ccc3c(c2)CCC(CC(=O)O)O3)c(Cl)c1 (racemic) [Example 76, rac-(6-(N-(4-(Aminoiminomethyl)-2-chlorobenzoyl)amino)-3,4-dihydro-2H-1-benzopyran-2-yl)acetic Acid] | 14 nM | 0.56 µM
O=C(O)CNC1CCc2cc(OCCCC3CCNCC3)ccc2C1 (stereo not shown) [Example 25] | 220 nM | –
CC(=O)N(CC(=O)O)C1CCc2cc(OCc3ccc(C(=N)N)cc3)ccc2C1 (stereo not shown) [Example 27] | 110 nM | –
N=C(N)c1ccc(COc2ccc3cc(CC(=O)O)ccc3c2)cc1 [Example 33] | 5 nM | –
N=C(N)c1ccc(COc2ccc3c(c2)CCC(NCC(=O)O)C3)cc1 (stereo not shown) [Example 26] | 520 nM | –
N=C(N)c1ccc(COc2ccc3c(c2)CCN(C(=O)C(=O)O)C3)cc1 [Example 44] | 160 nM | –
